From ChEMBL document CHEMBL4680262, “Development of oxathiino[6,5-b]pyridine 2,2-dioxide derivatives as selective inhibitors of tumor-related carbonic anhydrases IX and XII” (Eur J Med Chem, 2020)

Legend:
Carbonic anhydrase 1 = Carbonic anhydrase 1 (Homo sapiens, UniProt P00915); assay: Inhibition of recombinant human carbonic anhydrase 1 incubated for 6 hrs prior to testing measured for 10 to 100 secs by phenol red-based stopped-flow CO2 hydration assay
Carbonic anhydrase 2 = Carbonic anhydrase 2 (Homo sapiens, UniProt P00918); assay: Inhibition of recombinant human carbonic anhydrase 2 incubated for 6 hrs prior to testing measured for 10 to 100 secs by phenol red-based stopped-flow CO2 hydration assay
Carbonic anhydrase 9 = Carbonic anhydrase 9 (Homo sapiens, UniProt Q16790); assay: Inhibition of recombinant human carbonic anhydrase 9 incubated for 6 hrs prior to testing measured for 10 to 100 secs by phenol red-based stopped-flow CO2 hydration assay
MCF7 = assay: Cytotoxicity against human MCF7 cells assessed as reduction in cell viability incubated for 48 hrs by MTT assay; format: functional, cell-based; conditions: MCF7, 48 h
HeLa = assay: Cytotoxicity against human HeLa cells assessed as reduction in cell viability incubated for 48 hrs by MTT assay; format: functional, cell-based
A549 = assay: Cytotoxicity against human A549 cells assessed as reduction in cell viability incubated for 48 hrs by MTT assay; format: functional, cell-based; conditions: A549, 48 h

Carbonic anhydrase 1, sequence (P00915 whole entry): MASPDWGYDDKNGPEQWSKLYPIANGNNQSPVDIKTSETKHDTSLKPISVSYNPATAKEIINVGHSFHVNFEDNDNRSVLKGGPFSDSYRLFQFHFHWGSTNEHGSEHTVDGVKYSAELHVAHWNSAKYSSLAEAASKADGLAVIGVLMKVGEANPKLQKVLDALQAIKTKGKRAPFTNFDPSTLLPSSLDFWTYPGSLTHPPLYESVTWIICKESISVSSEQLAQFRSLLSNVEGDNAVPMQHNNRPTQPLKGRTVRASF

Structure (SMILES) | Ki (Carbonic anhydrase 1) | Ki (Carbonic anhydrase 2) | Ki (Carbonic anhydrase 9) | IC50 (MCF7) | IC50 (HeLa) | IC50 (A549)
O=S1(=O)C=Cc2cc(-c3ccc(OC(F)(F)F)cc3)cnc2O1 | > 100 µM | > 100 µM | 0.2 µM | – | – | –
O=S1(=O)C=Cc2cccnc2O1 | 64.1 µM | 14 µM | 0.169 µM | – | – | –
O=S1(=O)C=Cc2cc(-c3cccc4ccccc34)cnc2O1 | – | – | 0.221 µM | – | – | –
COc1cccc(-c2cnc3c(c2)C=CS(=O)(=O)O3)c1 | > 100 µM | > 100 µM | 0.137 µM | – | – | –
O=S1(=O)C=Cc2cc(-c3ccc(-c4ccccc4)cc3)cnc2O1 | > 100 µM | > 100 µM | 0.21 µM | – | – | –

The remaining compounds from weak to strong by Ki (Carbonic anhydrase 9), led by results:

Ki (Carbonic anhydrase 1) | Ki (Carbonic anhydrase 2) | Ki (Carbonic anhydrase 9) | Structure (SMILES) | IC50 (MCF7) | IC50 (HeLa) | IC50 (A549)
> 100 µM | > 100 µM | 0.134 µM | O=S1(=O)C=Cc2cc(-c3ccccc3)cnc2O1 | – | – | –
> 100 µM | > 100 µM | 0.0868 µM | COc1ccc(-c2cnc3c(c2)C=CS(=O)(=O)O3)cc1 | – | – | –
> 100 µM | > 100 µM | 0.0863 µM | O=S1(=O)C=Cc2cc(-c3ccc(Cl)cc3)cnc2O1 | – | – | –
– | – | 0.0701 µM | O=S1(=O)C=Cc2cc(-c3ccc(C(F)(F)F)cc3)cnc2O1 | 75 µM | 42 µM | 77 µM
> 100 µM | > 100 µM | 0.0569 µM | O=S1(=O)C=Cc2cc(-c3cc(Cl)cc(Cl)c3)cnc2O1 | 20 µM | 4.8 µM | 14 µM
– | – | 0.0314 µM | CC(C)(C)c1ccc(-c2cnc3c(c2)C=CS(=O)(=O)O3)cc1 | > 500 µM | 171 µM | 149 µM
